Results taken from PMC10597649, “Effect of Astragali radix extract on pharmacokinetic behavior of dapagliflozin in healthy and type 2 diabetic rats” (Frontiers in Pharmacology, 2023).
Where two headings read alike, the source gives them in different places.

Key:
[1] = ref Kasichayanula et al., 2013, cited from earlier work
[2] = Pharmacokinetics of DAPA in healthy rats (alone or co-administered with ARE), plasma by UPLC-MS/MS; type: in vivo, Sprague Dawley (SD) rats; conditions: for MRT last: read-out: MRT(0-t)
Description: The column temperature was maintained at 40°C. […] The sample injection volume was 2 μL. […] The ion spray voltage was set at […]. […] The source temperature was kept at 200°C. The collision gas was set at low flow rate. […] The samples were processed by the procedure described above.

[3] = test system: P-gp; conditions: ref Obermeier et al., 2010; cited from earlier work
[4] = for Accuracy (RE, %): rat plasma, n = 6
Description: Stability of DAPA in rat plasma was evaluated by analyzing six replicates of QC samples at low and high concentrations under different conditions. Short-term stability was investigated by keeping the samples at room temperature (25°C) for 12 h and autosampler (4°C) for 24 h, respectively. Freeze-thaw stability was investigated by three freeze-thawing cycles, i.e., the samples were frozen for 7 d at -80°C and thawed 3 h at room temperature for each cycle. Long-term stability was investigated by keeping the samples at -80°C for 1 month.

[5] = CD group: healthy rats, DAPA alone, single intragastric dose 1.05 mg/kg, n = 6, mean ± SD
[6] = CDA group compared to CD group (healthy rats, with ARE versus DAPA alone)
[7] = CDA group: healthy rats, ARE 300 mg/kg intragastric once a day for 7 days + DAPA single dose 1.05 mg/kg on day 7, n = 6, mean ± SD
[8] = CDA-H group: healthy rats, ARE 900 mg/kg once a day for 7 days + DAPA single dose 1.05 mg/kg on day 7, n=6, mean ± SD
[9] = CDA-L group: healthy rats, ARE 300 mg/kg once a day for 7 days + DAPA single dose 1.05 mg/kg on day 7, n=6, mean ± SD
[10] = male, Sprague-Dawley, rat, plasma, po, 1.05 mg/kg, CD group: healthy rats, DAPA alone, single intragastric dose 1.05 mg/kg, n = 6, mean ± SD
[11] = male, Sprague-Dawley, rat, plasma, po, 1.05 mg/kg, CDA-H group: healthy rats, ARE 900 mg/kg once a day for 7 days + DAPA single dose 1.05 mg/kg on day 7, n=6, mean ± SD
[12] = male, Sprague-Dawley, rat, plasma, po, 1.05 mg/kg, CDA-L group: healthy rats, ARE 300 mg/kg once a day for 7 days + DAPA single dose 1.05 mg/kg on day 7, n=6, mean ± SD
[13] = male, Sprague-Dawley, rat, plasma, po, CDA group: healthy rats, ARE 300 mg/kg intragastric once a day for 7 days + DAPA single dose 1.05 mg/kg on day 7, n = 6, mean ± SD

## CCOc1ccc(Cc2cc([C@@H]3O[C@H](CO)[C@@H](O)[C@H](O)[C@H]3O)ccc2Cl)cc1 [DAPA, Dapagliflozin]
[1]; T2DM patients with mild renal function damage versus T2DM patient without
  increase of C max: 4%
[1]; T2DM patients with moderate renal function damage versus T2DM patient without
  increase of C max: 6%
[1]; T2DM patients with severe renal function damage versus T2DM patient without
  increase of C max: 9%
[2]; [5]
  AUC(0-inf): 3868.26±344.05 h*(ng/mL)
  AUC(0-t): 3810.20±343.81 h*(ng/mL)
  CL: 273.31±25.26 (mL/h)/kg
  V: 1.42595 ± 0.16328 L/kg
[2]; [6]
  decrease of MRT: 25.11%
  decrease of t max: 55.91%
  increase of C max: 30.99%
[2]; [7]
  AUC(0-inf): 3845.72±851.15 h*(ng/mL)
  AUC(0-t): 3783.24±852.77 h*(ng/mL)
  C max: 0.50433 ± 0.09944 µg/mL
  CL: 283.83±58.84 (mL/h)/kg
  V: 1.5704 ± 0.40141 L/kg
[2]; [8]
  AUC(0-inf): 3946.77±756.89 h*(ng/mL)
  AUC(0-t): 3868.01±745.36 h*(ng/mL)
  CL: 273.49±46.98 (mL/h)/kg
  V: 1.55445 ± 0.21969 L/kg
[2]; [9]
  AUC(0-inf): 3845.72±851.15 h*(ng/mL)
  AUC(0-t): 3783.24±852.77 h*(ng/mL)
  CL: 283.83±58.84 (mL/h)/kg
  Cmax: 0.50433 ± 0.09944 µg/mL
  V: 1.5704 ± 0.40141 L/kg
[2]; between the CD group and the CDA group (healthy rats)
  difference of t 1/2, AUC(0-t), AUC(0-inf), V and CL: no significant difference
[2]; [10]
  Tmax: 5.67 ± 0.82 h
  half-life: 3.61 ± 0.21 h
  MRT last: 6.89 ± 0.28 h
[2]; male, Sprague-Dawley, rat, plasma, po, 1.05 mg/kg, CD group: healthy rats, DAPA alone, single intragastric dose 1.05 mg/kg, n = 6, mean ± SD, read-out: C max
  Cmax: 0.385 ± 0.046 µg/mL
[2]; [11]
  Tmax: 2.61 ± 0.9 h
  half-life: 3.96 ± 0.17 h
  MRT last: 5.04 ± 0.27 h
[2]; male, Sprague-Dawley, rat, plasma, po, 1.05 mg/kg, CDA-H group: healthy rats, ARE 900 mg/kg once a day for 7 days + DAPA single dose 1.05 mg/kg on day 7, n=6, mean ± SD, read-out: Cmax
  Cmax: 0.538 ± 0.123 µg/mL
[2]; [12]
  Tmax: 2.5 ± 1.22 h
  half-life: 3.8 ± 0.22 h
  MRT last: 5.16 ± 0.36 h
[2]; [13]
  Tmax: 2.5 ± 1.22 h
  half-life: 3.8 ± 0.22 h
  MRT last: 5.16 ± 0.36 h
[3]
  P-gp substrate: substrate of P-gp
[4]; freeze thaw (3 cycles, 7 d at -80°C, thawed 3 h at room temperature), 33.5 ng/mL
  Accuracy (RE, %): -4.72%
[4]; freeze thaw (3 cycles, 7 d at -80°C, thawed 3 h at room temperature), 975 ng/mL
  Accuracy (RE, %): -3.71%
[4]; long term (-80°C, 30d), 33.5 ng/mL
  Accuracy (RE, %): -2.96%
[4]; long term (-80°C, 30d), 975 ng/mL
  Accuracy (RE, %): -2.97%
[4]; refrigerator (4°C, 24 h), 33.5 ng/mL
  Accuracy (RE, %): -1.37%
[4]; refrigerator (4°C, 24 h), 975 ng/mL
  Accuracy (RE, %): -2.63%
[4]; room temperature (25°C, 12 h), 33.5 ng/mL
  Accuracy (RE, %): -1.19%
[4]; room temperature (25°C, 12 h), 975 ng/mL
  Accuracy (RE, %): -2.87%
[4]; room temperature (25°C) for 12 h, 4°C for 24 h, -80°C for 30 days, three freeze-thaw cycles
  Stability in the rat plasma: stable
